In the assay the target is T1, trypsin-activated recombinant human renin (Homo sapiens, UniProt P00797).
T1 sequence (P00797 67-406): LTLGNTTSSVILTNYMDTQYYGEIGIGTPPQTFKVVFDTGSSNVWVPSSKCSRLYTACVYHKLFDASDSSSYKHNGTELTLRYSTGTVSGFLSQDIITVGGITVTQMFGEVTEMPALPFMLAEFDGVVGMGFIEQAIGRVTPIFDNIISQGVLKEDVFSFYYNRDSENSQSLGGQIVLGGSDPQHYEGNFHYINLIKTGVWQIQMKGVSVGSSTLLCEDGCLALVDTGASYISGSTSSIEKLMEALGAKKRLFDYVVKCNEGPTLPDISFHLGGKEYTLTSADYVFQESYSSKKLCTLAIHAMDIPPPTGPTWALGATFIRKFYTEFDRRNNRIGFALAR
Description: Renin fluorescence assay (internally quenched peptide substrate). The conditions noted are these: compounds I*. The format is biochemical. The method in brief: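 Compounds (1 nM–10 μM final, DMSO) were mixed with internally quenched angiotensinogen-sequence substrate in pH 7.0 BES/NaCl/BSA buffer, then 0.2-2 nM trypsin-activated human renin added. Rate from the linear fluorescence increase (340 nm excitation, 495 nm emission) over 60-360 min at rt, compared with uninhibited control.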

SMILES strings stand for the structures.

Take `CNC[C@@H](CC1(C)CCCCC1)NC(=O)N1CCC[C@@H]([C@@H](OCCNC(=O)OC)c2cccc(F)c2)C1` [I*-42a, methyl 2-((R)-(3-fluorophenyl)((R)-1-((R)-1-(methylamino)-3-(1-methylcyclohexyl)propan-2-ylcarbamoyl)piperidin-3-yl)methoxy)ethylcarbamate]: the IC50 is more than 0.05 µM.

For the compound `CNC[C@H](CC1(C)CCCCC1)NC(=O)N1CCC[C@@H]([C@@H](OCCNC(=O)OC)c2cccc(Cl)c2)C1` [I*-90a, methyl 2-((R)-(3-chlorophenyl)((R)-1-((S)-1-(methylamino)-3-(1-methylcyclohexyl)propan-2-ylcarbamoyl)piperidin-3-yl)methoxy)ethylcarbamate], the IC50 was less than 0.001 µM.

Take `COC(=O)NCCO[C@@H](c1cccc(F)c1)[C@@H]1CCCN(C(=O)NC[C@@H](N)C[C@H]2CCCCOC2)C1` [I*-28a, methyl 2-((R)-((R)-1-((S)-2-amino-3-((R)-oxepan-3-yl)propylcarbamoyl)piperidin-3-yl)(3-fluorophenyl)methoxy)ethylcarbamate]: the IC50 was less than 0.01 µM.

As to `CNC[C@H](CC1CCCCC1)NC(=O)N1CCCC[C@@H]([C@@H](OCCNC(=O)OC)c2cccc(Cl)c2)C1` [I*-91a, methyl 2-((R)-(3-chlorophenyl)((R)-1-((S)-1-cyclohexyl-3-(methylamino)propan-2-ylcarbamoyl)azepan-3-yl)methoxy)ethylcarbamate], the IC50 is less than 0.01 µM.

For the compound `CNC[C@H](CC1CCCCCC1)NC(=O)N1CCC[C@@H]([C@@H](OCCNC(=O)OC)c2cccc(F)c2)C1` [I*-39a, methyl 2-((R)-((R)-1-((S)-1-cycloheptyl-3-(methylamino)propan-2-ylcarbamoyl)piperidin-3-yl)(3-fluorophenyl)methoxy)ethylcarbamate], the IC50 was less than 0.001 µM.

As for `CNC[C@H](CC1CCCOC1)NC(=O)N1CCC[C@@H]([C@@](O)(CCCNC(=O)OC)c2cccc(Cl)c2F)C1` (stereo partly drawn) [I*-139a, methyl (S)-4-(3-chloro-2-fluorophenyl)-4-hydroxy-4-((3R)-1-((S)-1-(methylamino)-3-(tetrahydro-2H-pyran-3-yl)propan-2-ylcarbamoyl)piperidin-3-yl)butylcarbamate], the IC50 was less than 0.01 µM.

For the compound `CNC[C@H](CC1CCOCC1)NC(=O)N1CCC[C@@H]([C@@H](OCCNC(=O)OC)c2cc(F)ccc2C)C1` [I*-50a, methyl 2-((R)-(5-fluoro-2-methylphenyl)((R)-1-((S)-1-(methylamino)-3-(tetrahydro-2H-pyran-4-yl)propan-2-ylcarbamoyl)piperidin-3-yl)methoxy)ethylcarbamate], the IC50 was less than 0.01 µM.

With `CNC[C@H](CC1CCCCC1)NC(=O)N1CCC[C@@H]([C@@H](OCCNC(=O)OC)c2ccc(F)c(F)c2)C1` [I*-65a, methyl 2-((R)-((R)-1-((S)-1-cyclohexyl-3-(methylamino)propan-2-ylcarbamoyl)piperidin-3-yl)(3,4-difluorophenyl)methoxy)ethylcarbamate], the IC50 is less than 0.01 µM.

In the case of `CNC[C@H](C[C@H]1CCC2(CC2)OC1)NC(=O)N1CCC[C@@H]([C@@H](OCCNC(=O)OC)c2cc(F)cc(F)c2)C1` [I*-160a, methyl 2-((R)-(3,5-difluorophenyl)((R)-1-((S)-1-((R)-4-oxaspiro[2.5]octan-6-yl)-3-(methylamino)propan-2-ylcarbamoyl)piperidin-3-yl)methoxy)ethylcarbamate], the IC50 is less than 0.001 µM.

With `CCNC(=O)CO[C@@H](c1cccc(Cl)c1)[C@@H]1CCCN(C(=O)N[C@H](CNC)CC2CCOCC2)C1` [I*-31a, (R)-3-((R)-(3-chlorophenyl)(2-(ethylamino)-2-oxoethoxy)methyl)-N—((S)-1-(methylamino)-3-(tetrahydro-2H-pyran-4-yl)propan-2-yl)piperidine-1-carboxamide], the IC50 is more than 0.05 µM.

For `CCNC[C@H](CC1CCCCC1)NC(=O)N1CCC[C@@H]([C@@H](OCCNC(=O)OC)c2cccc(Cl)c2)C1` [I*-88a, methyl 2-((R)-(3-chlorophenyl)((R)-1-((S)-1-cyclohexyl-3-(ethylamino)propan-2-ylcarbamoyl)piperidin-3-yl)methoxy)ethylcarbamate], the IC50 is less than 0.001 µM.

As for `CNC[C@H](CC1CCOCC1)NC(=O)N1CCC[C@@H]([C@@H](OCCNC(=O)OC)c2cc(Cl)ccc2C)C1` [I*-101a, methyl 2-((R)-(5-chloro-2-methylphenyl)((R)-1-((S)-1-(methylamino)-3-(tetrahydro-2H-pyran-4-yl)propan-2-ylcarbamoyl)piperidin-3-yl)methoxy)ethylcarbamate], the IC50 is less than 0.01 µM.

For `CNC[C@@H](NC(=O)N1CCC[C@@H]([C@@H](OCCNC(=O)OC)c2ccccc2)C1)[C@@H](O)C1CCCCC1` [I*-19a, methyl 2-((R)—((R)-1-((1S,2R)-1-cyclohexyl-1-hydroxy-3-(methylamino)propan-2-ylcarbamoyl)piperidin-3-yl)(phenyl)methoxy)ethylcarbamate], the IC50 is less than 0.01 µM.

Regarding `CNC[C@H](C[C@H]1CCC2(CC2)OC1)NC(=O)N1CCC[C@@H]([C@@H](OCCNC(=O)OC)c2cccc(F)c2)C1` [I*-159a, methyl 2-((R)-(3-fluorophenyl)((R)-1-((S)-1-((R)-4-oxaspiro[2.5]octan-6-yl)-3-(methylamino)propan-2-ylcarbamoyl)piperidin-3-yl)methoxy)ethylcarbamate], the IC50 was less than 0.01 µM.

In the case of `CNC[C@H](CC1CCCCC1)NC(=O)N1CCC[C@@H]([C@@H](OCCNC(=O)OC)c2ccccc2)C1` (mixture of isomers) [I*-2a, methyl 2-((R)—((R)-1-((±)-1-cyclohexyl-3-(methylamino)propan-2-ylcarbamoyl)piperidin-3-yl)(phenyl)methoxy)ethylcarbamate], the IC50 is less than 0.01 µM.

Turning to `CNC[C@H](CC12CC3CC(CC(C3)C1)C2)NC(=O)N1CCC[C@@H]([C@@H](OCCNC(=O)OC)c2cc(F)ccc2F)C1` [I*-152a, methyl 2-((R)-((R)-1-((S)-1-(1-adamantyl)-3-(methylamino)propan-2-ylcarbamoyl)piperidin-3-yl)(2,5-difluorophenyl)methoxy)ethylcarbamate], the IC50 was less than 0.01 µM.

As to `CNC[C@H](CCCOC)NC(=O)N1CCC[C@@H]([C@@H](OCCNC(=O)OC)c2cccc(Cl)c2)C1` [I*-1a], the IC50 is more than 0.05 µM.

For the compound `COC(=O)NCCO[C@@H](c1cc(F)ccc1C)[C@@H]1CCCN(C(=O)NC[C@@H](N)C[C@H]2CCCCOC2)C1` [I*-58a, methyl 2-((R)-((R)-1-((S)-2-amino-3-((R)-oxepan-3-yl)propylcarbamoyl)piperidin-3-yl)(5-fluoro-2-methylphenyl)methoxy)ethylcarbamate], the IC50 was less than 0.01 µM.

On to `CNC[C@H](CC1(C)CCCCC1)NC(=O)N1CCC[C@@H]([C@@H](OCCNC(=O)OC)c2cc(F)cc(F)c2)C1` [I*-95a, methyl 2-((R)-(3,5-difluorophenyl)((R)-1-((S)-1-(methylamino)-3-(1-methylcyclohexyl)propan-2-ylcarbamoyl)piperidin-3-yl)methoxy)ethylcarbamate], for which the IC50 is less than 0.01 µM.

For orientation: IC50 means the concentration at which inhibition is half-maximal.
